Laboratory results: paper PMC9926234, “Iterative computational design and crystallographic screening identifies potent inhibitors targeting the Nsp3 macrodomain of SARS-CoV-2” (Proceedings of the National Academy of Sciences of the …, 2023)
Values joined by “and” are separate entries in the source; they are usually repeats but may differ in a detail not shown here. Identical values can stand only once. Like-named read-outs stand apart in the source and are kept apart here.

How the values were obtained:
SARS-CoV-2 NSP3 Mac1 [1] = experiment: Overall hit call (binding in crystallographic soaking or the HTRF-based binding assay)
From the text: Supplement pnas.2212931120.sd01.xlsx, sheet "Compound Summary" | column: HIT*

SARS-CoV-2 NSP3 Mac1 [2] = biological target: T1, SARS-CoV-2 NSP3 Mac1 (Severe acute respiratory syndrome coronavirus 2, UniProt P0DTD1); experiment: biochemical; type: binding; details: for IC50: read-out: IC50; for Ki: Ki estimation from HTRF-derived IC50, Cheng-Prusoff, peptide 400nM, Kd 2.68µM, read-out: Ki***
SARS-CoV-2 NSP3 Mac1 [3] = biological target: T1, SARS-CoV-2 NSP3 Mac1; type: binding; details: for Refined occupancy: ligand occupancy after refinement (phenix.refine); for HIT*: overall hit flag: binding in crystallographic soaking or the HTRF-based binding assay
SARS-CoV-2 NSP3 Mac1 [4] = biological target: T1, SARS-CoV-2 NSP3 Mac1; type: binding; parameters: contains a conserved macrodomain enzyme (Mac1); details: for Spearman est (compound concentration vs apparent Tm): DSF dose responsiveness, 1 µM nsp3 mac1, adj p given; for DSF max dTma: maximal thermal upshift vs DMSO control
Outline: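 Differential scanning fluorimetry using 5 µM Fluorescent Yellow dye in place of SYPRO Orange. Compounds run in triplicate at seven two-fold dilutions from 1,000 or 100 μM, with ΔTma taken against a DMSO control in the same plate region. Dose-response significance assessed by Spearman's coefficient between concentration and ΔTma.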

[5] = HTRF ADPr-peptide displacement from SARS-CoV-2 Mac1
[6] = HTRF, several values in a cell are separate determinations
[7] = PanDDA event map, 1 minus background density correction, crystal soaking of Mac1

SMILES: O=C(O)CC1CC(CNC(=O)c2cncc3sccc23)C1 (stereo not shown) [Z1558]
- HIT* (SARS-CoV-2 NSP3 Mac1 [1]): Y

SMILES: CC(Cc1ccco1)C(=O)N[C@@H](CC(=O)O)c1ccc2c(c1)OCO2 (stereo partly shown) [Z1877]
- HIT* (SARS-CoV-2 NSP3 Mac1 [1]): Y

SMILES: Cc1oc(CNc2ncnc3[nH]c4ccccc4c23)cc1C(=O)O [Z3124]
- HIT* (SARS-CoV-2 NSP3 Mac1 [1]): Y

SMILES: CC(F)(F)c1cncc(C(=O)NC(Cc2cncc(Br)c2)C(=O)O)c1 (stereo not shown) [Z3140]
- HIT* (SARS-CoV-2 NSP3 Mac1 [1]): Y

SMILES: O=C(NS(=O)(=O)Cc1ccc(Br)c(F)c1)c1cnn2ccccc12 [Z3209]
- HIT* (SARS-CoV-2 NSP3 Mac1 [1]): Y

SMILES: O=C1OCCN1C1CCN(c2ncnc3[nH]c4cc(F)ccc4c23)C1 (stereo not shown) [Z5107]
- HIT* (SARS-CoV-2 NSP3 Mac1 [1]): Y

SMILES: CCc1c[nH]c2ncnc(N3CCCC(Cc4nc(C)no4)C3)c12 (stereo not shown) [Z5531]
- IC50 (SARS-CoV-2 NSP3 Mac1 [2]; [5]): 148 µM
- IC50 (SARS-CoV-2 NSP3 Mac1 [2]; [6]): 148 µM
- Ki (SARS-CoV-2 NSP3 Mac1 [2]): 129 µM
- 1-BDC (SARS-CoV-2 NSP3 Mac1 [3]; PanDDA 1-BDC (background density correction) of the event, crystal soak 100 mM, PanDDA run dmso_34): 0.2
- 1-BDC (SARS-CoV-2 NSP3 Mac1 [3]; [7]): 0.2
- PanDDA hit? (SARS-CoV-2 NSP3 Mac1 [3]; crystal soak, compound concentration 100 mM, PanDDA run dmso_34, series docking_lead-like_1): TRUE
- Modeled? (SARS-CoV-2 NSP3 Mac1 [3]; ligand modeled in the crystal structure, crystal soak 100 mM, PanDDA run dmso_34): TRUE
- Refined occupancy (SARS-CoV-2 NSP3 Mac1 [3]; crystal soaking of Mac1): 40
- HIT* (SARS-CoV-2 NSP3 Mac1 [3]): Y
- Spearman est (compound concentration vs apparent Tm) (SARS-CoV-2 NSP3 Mac1 [4]): 0.68
- DSF max dTma (SARS-CoV-2 NSP3 Mac1 [4]): 0.6 °C

SMILES: O=C(O)Cc1cccc(CNC(=O)c2ncnc3ccsc23)c1 [Z5712]
- HIT* (SARS-CoV-2 NSP3 Mac1 [1]): Y

SMILES: CC(O)CNc1cc(N2CC3(CCC3)C(F)(C(=O)O)C2)ncn1 (stereo not shown) [Z5722]
- IC50 (SARS-CoV-2 NSP3 Mac1 [2]; [5]): 464 µM and 460 µM
- Ki (SARS-CoV-2 NSP3 Mac1 [2]): 404 µM
- 1-BDC (SARS-CoV-2 NSP3 Mac1 [3]; PanDDA event map background density correction, crystal soak, Compound_concentration 100 mM, PanDDA run dmso_34): 0.18
- 1-BDC (SARS-CoV-2 NSP3 Mac1 [3]; [7]): 0.18
- PanDDA hit? (SARS-CoV-2 NSP3 Mac1 [3]; crystal soak, Compound_concentration 100 mM, Echo dispense 40 nl, PanDDA run dmso_34): TRUE
- Modeled? (SARS-CoV-2 NSP3 Mac1 [3]; ligand modeled in crystal structure, crystal soak, Compound_concentration 100 mM, PanDDA run dmso_34): TRUE
- Refined occupancy (SARS-CoV-2 NSP3 Mac1 [3]; crystal soaking of Mac1): 36
- HIT* (SARS-CoV-2 NSP3 Mac1 [3]): Y
- Spearman est (compound concentration vs apparent Tm) (SARS-CoV-2 NSP3 Mac1 [4]): 0.59
- DSF max dTma (SARS-CoV-2 NSP3 Mac1 [4]): 0.96 °C

SMILES: O=C(O)Cc1ccc(CNC(=O)c2ccnc3ccsc23)cc1 [Z6625]
- HIT* (SARS-CoV-2 NSP3 Mac1 [1]): Y

SMILES: COc1cncc(C(=O)NCCNC(=O)c2ncccc2O)c1 [Z6634]
- HIT* (SARS-CoV-2 NSP3 Mac1 [1]): Y

SMILES: CC(=O)Nc1nc(C)c(S(=O)(=O)Nc2ccc(C)c(C#N)c2)s1 [Z6707]
- HIT* (SARS-CoV-2 NSP3 Mac1 [1]): Y

SMILES: Cc1oc(C(N)=O)cc1S(=O)(=O)Nc1ccc(Br)c(C#N)c1 [Z6708]
- HIT* (SARS-CoV-2 NSP3 Mac1 [1]): Y

SMILES: Cc1oc(C(N)=O)cc1S(=O)(=O)Nc1cnc(Cl)c(C#N)c1 [Z6746]
- HIT* (SARS-CoV-2 NSP3 Mac1 [1]): Y

SMILES: C[C@@H]1CN(c2ncnc3[nH]c4ccccc4c23)C[C@@H](CO)O1 [Z6923]
- IC50 (SARS-CoV-2 NSP3 Mac1 [2]; [5]): 416 µM and ≤ 90 µM
- IC50 (SARS-CoV-2 NSP3 Mac1 [2]; [6]): 416 µM
- Ki (SARS-CoV-2 NSP3 Mac1 [2]): 362 µM
- 1-BDC (SARS-CoV-2 NSP3 Mac1 [3]; [7]): 0.1
- Modeled? (SARS-CoV-2 NSP3 Mac1 [3]; ligand modeled in structure, crystal soak, Compound_concentration 100 mM): TRUE
- Refined occupancy (SARS-CoV-2 NSP3 Mac1 [3]; crystal soaking of Mac1): 20
- HIT* (SARS-CoV-2 NSP3 Mac1 [3]): Y
- Spearman est (compound concentration vs apparent Tm) (SARS-CoV-2 NSP3 Mac1 [4]): 0.28
- DSF max dTma (SARS-CoV-2 NSP3 Mac1 [4]): 0.46 °C

SMILES: O=C(O)c1ccc(F)c(CNC(=O)c2ccc3[nH]ccc3c2)c1 [Z7647]
- HIT* (SARS-CoV-2 NSP3 Mac1 [1]): Y
